4 compounds from US20150322527A1, “TRANSCRIPTIONAL PROFILING AND BIOMARKER-BASED METHODS FOR IDENTIFYING AND EVALUATING AGENTS FOR ANTIOXIDANT EFFICACY IN COSMETIC SKIN CARE FORMULATIONS” (The Procter & Gamble Company, priority 2010, published 2015) can be followed below.

The test system of the test is Nrf2-mediated transcription off the antioxidant response element (ARE). The test can be described thus: ARE activation assay (ARE32 luciferase reporter cell line). In kind it is cell-based. Particulars: 24 hrs. The text has this: An ARE reporter cell line may be developed and used to screen for compounds that increase transcription off the ARE in response to oxidative stress, resulting in an increase in cellular antioxidant defense proteins. An ARE32 reporter cell line was adapted to provide an assay for cosmetic agents which may increase transcription off the ARE and increase expression of Phase 2 enzymes, thus augmenting the body's own antioxidant response. ARE32 is a stable reporter cell line produced by CXR Biosciences by transfecting MCF7 cells with pGL8x-ARE (8 copies of the rat GST ARE linked to the luciferase gene) and pCDNA3.1 which contains the neomycin selectable marker. Selection is performed in the presence of G418 and resistant clones are isolated and screened for induction of luciferase. An exemplary standard is tert-butyl hydroquinone (tBHQ), a known activator of Nrf2. ARE32 is a stable MCF7 cell line containing pGL8x-ARE (8 copies of the rat GST ARE linked to the luciferase gene) and pCDNA3.1 which contains the neomycin selectable marker, which was licensed from CXRbiosciences. Selection was performed in the presence of G418 and resistant clones were isolated. Clones were screened for induction of luciferase in response to tBHQ. ARE32 cells are maintained routinely in the DMEM (phenol red free) containing: • 10% FBS • 50 units/ml penicillin & 50 μg/ml streptomycin • 0.8 mg/ml G418 • Cells are subcultured every 3-4 days. […] Induction of Luciferase with tBHQ • 1. In a 96 well-plate, seed 1×10^4 cells/well in 100 μl DMEM containing 50 units/ml penicillin, 50 μg/ml streptomycin, 0.8 mg/ml G418 and 10% FBS. • 2. Incubate the cells at 37° C. in a 5% CO2 incubator for 24 hrs. • 3. […] (10 mM tBHQ of stock solution was freshly prepared in DMSO) • 4. Add 100 ul of media after treatment, final assay volume 200 uL. • 5. Incubate the cells at 37° C. in CO2 incubator for another 24 hrs. • 6. Assay for luciferase activity with Steady-glo Assay System by following the manufacture's instruction: • a. Remove 100 μL of media • b. Add 100 μl of reconstituted substrate directly to well • c. Incubate 5-10 min shaking. • d. […] Read plate for 5 seconds per well. The ARE activation assay described in Example 3 is employed. To test for transcription off the antioxidant response element, the reporter line is grown, compounds are added, each compound in varying doses, and allowed to incubate for 24 hours. Cells are then lysed and luminescent output is detected and quantified. […] Proposed compounds are screened using the ARE assay set forth in Example 3, above. Table 4 illustrates “ARE screening hits” along with concentrations tested for each compound and the observed percent increase in ARE. […]
(In a reporter assay the amount or activity of a reporter protein is the signal.)

In the case of `O=C(/C=C/c1ccc(O)c(O)c1)O[C@H](Cc1ccc(O)c(O)c1)C(=O)O` [Rosmarinic acid], the “ARE (% control)” value (concentration tested 200 μM) is given as 1211 % control. Turning to `CCCCCC/C=C/C#CCCCCCCCC(=O)O` [Xymenynic acid], under “concentration tested 200 μM”, the “ARE (% control)” value is listed as 329 % control.

For the compound Umbelliferin, the “ARE (% control)” value (concentration tested 0.01%) was 1815 % control. In the case of `O=C(O)CCCCC1CCSS1` (stereo not drawn) [Alpha-lipoic acid], the “ARE (% control)” value (concentration tested 200 μM) worked out at 534 % control.
